Experimental findings from patent publication US11325899B2, “Benzofurane and benzothiophene derivatives as PGE2 receptor modulators” (IDORSIA PHARMACEUTICALS LTD, priority 2017, dated 2022) are described below.

pIC50: −log10 of the molar value.

The target in one test is T1, PTGER4 (EP4) (Homo sapiens, UniProt P35408).
T1 construct: host or cells: HEK 293 (PathHunter PTGER4 b-arrestin cell line)
Description: hEP4 b-arrestin assay (PathHunter HEK 293 PTGER4 b-arrestin cells). The class given is cell-based. As to conditions: antagonistic activity, beta-arrestin assay; read-out: hEP4 b-arr IC50. The method in brief:
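PathHunter HEK 293 cells expressing ProLink-tagged human EP4 and EA-β-arrestin 2, seeded 24 h before. Compounds (10 μM–2 nM or 1 μM–0.2 nM) preincubated 15 min at 37 °C, then 20 nM PGE2 (EC80) for 120 min at 37 °C. β-gal complementation luminescence read; IC50 from duplicate dose-response curves versus DMSO control.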

Another test has as its target T2, EP2 receptor (Homo sapiens, UniProt P43116).
T2 construct: SF295 glioblastoma cells express high endogenous EP2 and no EP4; host or cells: SF295 glioblastoma cells
The test can be described thus: hEP2 cAMP assay (SF295 glioblastoma cells, HTRF cAMP, PGE2 stimulation). The class given is cell-based. The conditions noted are these: antagonistic activity. Summed up:
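SF295 glioblastoma cells with endogenous EP2 and no EP4, in HBSS/HEPES/BSA with 2 mM IBMX, pre-incubated 45 min at room temperature with compound, then stimulated 30 min with 75 nM PGE2 (EC80). cAMP measured by HTRF; IC50 fitted from duplicate % cAMP versus DMSO control.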
(In general: Changes in cAMP serve as a functional read-out for many G protein-coupled receptors.)

T1 sequence (P35408 whole entry): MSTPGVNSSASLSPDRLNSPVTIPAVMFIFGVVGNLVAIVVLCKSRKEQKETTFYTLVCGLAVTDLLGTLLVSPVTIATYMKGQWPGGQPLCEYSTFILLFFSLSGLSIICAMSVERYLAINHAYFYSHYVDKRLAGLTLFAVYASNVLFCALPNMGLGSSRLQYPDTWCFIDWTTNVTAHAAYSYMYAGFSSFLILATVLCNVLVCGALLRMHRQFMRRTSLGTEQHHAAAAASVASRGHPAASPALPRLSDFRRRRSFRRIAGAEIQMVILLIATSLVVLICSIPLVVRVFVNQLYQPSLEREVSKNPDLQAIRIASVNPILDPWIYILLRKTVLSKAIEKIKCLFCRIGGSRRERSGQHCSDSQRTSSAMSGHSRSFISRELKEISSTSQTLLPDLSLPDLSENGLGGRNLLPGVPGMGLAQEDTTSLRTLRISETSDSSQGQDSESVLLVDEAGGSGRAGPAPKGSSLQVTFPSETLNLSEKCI
T2 sequence (P43116 whole entry): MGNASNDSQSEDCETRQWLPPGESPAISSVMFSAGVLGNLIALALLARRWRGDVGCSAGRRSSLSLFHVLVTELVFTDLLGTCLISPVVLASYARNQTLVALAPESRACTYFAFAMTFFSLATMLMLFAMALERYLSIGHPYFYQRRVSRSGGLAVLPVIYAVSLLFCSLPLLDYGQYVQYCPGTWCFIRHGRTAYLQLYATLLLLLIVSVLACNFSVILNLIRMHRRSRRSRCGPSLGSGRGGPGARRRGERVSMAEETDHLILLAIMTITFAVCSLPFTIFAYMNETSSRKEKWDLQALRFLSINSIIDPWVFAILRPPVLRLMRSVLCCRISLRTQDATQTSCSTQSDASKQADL

Usually pIC50 stands for the negative decadic logarithm of the IC50, by convention in mol/L. `CCOc1cc(-c2cc(NCCc3c(C)sc4c(C)cccc34)ncn2)ccc1C(C)C(=O)O` (racemic) [Example 126, rac-2-(4-{6-[2-(2,7-Dimethyl-benzo[b]thiophen-3-yl)-ethylamino]-pyrimidin-4-yl}-2-ethoxy-phenyl)-propionic acid]: the results for the pIC50 on PTGER4 (EP4) and against EP2 receptor were 6.37 and 6.63, respectively.

As to `COc1ccc(Cl)c2c(CCNc3cc(-c4cc(C)c(C(=O)O)s4)ncn3)c(C)sc12` [Example 5, 5-{6-[2-(4-Chloro-7-methoxy-2-methyl-benzo[b]thiophen-3-yl)-ethylamino]-pyrimidin-4-yl}-3-methyl-thiophene-2-carboxylic acid], the pIC50 on PTGER4 (EP4) was 6.61; against EP2 receptor it was 6.75.

Take `Cc1cc(-c2cc(NCCc3c(C)oc4ccccc34)ncn2)sc1C(=O)O` [Example 6, 3-Methyl-5-{6-[2-(2-methyl-benzofuran-3-yl)-ethylamino]-pyrimidin-4-yl}-thiophene-2-carboxylic acid]: the results for the negative-log IC50 (pIC50) at PTGER4 (EP4) and against EP2 receptor were 6.17 and 8.40, respectively.

Consider `CCc1oc2c(C)cc(F)cc2c1CCNc1cc(-c2cc(C)c(C(=O)O)s2)ncn1` [Example 7, 5-{6-[2-(2-Ethyl-5-fluoro-7-methyl-benzofuran-3-yl)-ethylamino]-pyrimidin-4-yl}-3-methyl-thiophene-2-carboxylic acid], for which the pIC50 on PTGER4 (EP4) was 6.24; on EP2 receptor, 6.70.

As for `Cc1sc2c(C)cccc2c1CCNc1cc(-c2ccc(C(=O)O)cc2)ncn1` [Example 8, 4-{6-[2-(2,7-Dimethyl-benzo[b]thiophen-3-yl)-ethylamino]-pyrimidin-4-yl}-benzoic acid], the results for the pIC50 on PTGER4 (EP4) and on EP2 receptor were 5.93 and 8.10, respectively.

Regarding `COc1ccc(Cl)c2c(CCNc3cc(-c4ccc(C(=O)O)c(O)c4)ncn3)c(C)sc12` [Example 9, 4-{6-[2-(4-Chloro-7-methoxy-2-methyl-benzo[b]thiophen-3-yl)-ethylamino]-pyrimidin-4-yl}-2-hydroxy-benzoic acid], the pIC50 at PTGER4 (EP4) was 5.78; against EP2 receptor it was 7.36.

Take `Cc1sc2c(C)cc(F)cc2c1CCNc1cc(-c2ccc(C(=O)O)c(O)c2)ncn1` [Example 10, 4-{6-[2-(5-Fluoro-2,7-dimethyl-benzo[b]thiophen-3-yl)-ethylamino]-pyrimidin-4-yl}-2-hydroxy-benzoic acid]: the pIC50 at PTGER4 (EP4) was 5.98; against EP2 receptor it was 7.49.

With `CSc1cc(-c2cc(NCCc3c(C#N)sc4c(C)cc(F)cc34)ncn2)ccc1C(=O)O` [Example 12, 4-{6-[2-(2-Cyano-5-fluoro-7-methyl-benzo[b]thiophen-3-yl)-ethylamino]-pyrimidin-4-yl}-2-methylsulfanyl-benzoic acid], the pIC50 at PTGER4 (EP4) is 6.95; against EP2 receptor, 8.40.

Turning to `COc1cccc2c(CCNc3cc(-c4ccc(C(=O)O)c(SC)c4)ncn3)c(C#N)sc12` [Example 13, 4-{6-[2-(2-Cyano-7-methoxy-benzo[b]thiophen-3-yl)-ethylamino]-pyrimidin-4-yl}-2-methylsulfanyl-benzoic acid], the pIC50 at PTGER4 (EP4) is 6.94; against EP2 receptor it was 7.49.

For `CCOc1cc(-c2cc(NCCc3c(C)sc4c(C)cc(F)cc34)ncn2)sc1/C=C/C(=O)O` [Example 96, (E)-3-(3-Ethoxy-5-{6-[2-(5-fluoro-2,7-dimethyl-benzo[b]thiophen-3-yl)-ethylamino]-pyrimidin-4-yl}-thiophen-2-yl)-acrylic acid], the negative-log IC50 (pIC50) at PTGER4 (EP4) was 7.80; against EP2 receptor, 6.92.

In the case of `CCOc1cc(-c2cc(NCCc3c(C)sc4c(C)cc(F)cc34)ncn2)sc1CCC(=O)O` [Example 97, 3-(3-Ethoxy-5-{6-[2-(5-fluoro-2,7-dimethyl-benzo[b]thiophen-3-yl)-ethylamino]-pyrimidin-4-yl}-thiophen-2-yl)-propionic acid], the pIC50 was 7.08 on PTGER4 (EP4) and 6.92 on EP2 receptor.

For `COc1ccc(Cl)c2c(CCNc3cc(-c4ccc(C(=O)O)c(OC(C)C)c4)ncn3)c(C)sc12` [Example 98, 4-{6-[2-(4-Chloro-7-methoxy-2-methyl-benzo[b]thiophen-3-yl)-ethylamino]-pyrimidin-4-yl}-2-isopropoxy-benzoic acid], the pIC50 on PTGER4 (EP4) was 6.47; against EP2 receptor, 7.28.

With `CCCOc1cc(-c2cc(NCCc3c(C)sc4c(C)c(F)ccc34)ncn2)ccc1C(=O)O` [Example 99, 4-{6-[2-(6-Fluoro-2,7-dimethyl-benzo[b]thiophen-3-yl)-ethylamino]-pyrimidin-4-yl}-2-propoxy-benzoic acid], the pIC50 is 6.62 at PTGER4 (EP4) and 7.52 against EP2 receptor.

In the case of `CCCOc1cc(-c2cc(NCCc3c(C)sc4c(C)cc(F)cc34)ncn2)ccc1C(=O)O` [Example 100, 4-{6-[2-(5-Fluoro-2,7-dimethyl-benzo[b]thiophen-3-yl)-ethylamino]-pyrimidin-4-yl}-2-propoxy-benzoic acid], the results for the pIC50 on PTGER4 (EP4) and against EP2 receptor were 6.52 and 7.70, respectively.

For `CCCOc1cc(-c2cc(NCCc3c(C)sc4c(OC)ccc(Cl)c34)ncn2)ccc1C(=O)O` [Example 101, 4-{6-[2-(4-Chloro-7-methoxy-2-methyl-benzo[b]thiophen-3-yl)-ethylamino]-pyrimidin-4-yl}-2-propoxy-benzoic acid], the figures for the pIC50 at PTGER4 (EP4) and on EP2 receptor were 6.30 and 7.07, respectively.

Take `CCCOc1cc(-c2cc(NCCc3c(C)sc4c(Cl)ccc(Cl)c34)ncn2)ccc1C(=O)O` [Example 102, 4-{6-[2-(4,7-Dichloro-2-methyl-benzo[b]thiophen-3-yl)-ethylamino]-pyrimidin-4-yl}-2-propoxy-benzoic acid]: the pIC50 at PTGER4 (EP4) is 6.09; against EP2 receptor it was 7.27.

Take `CCOc1cc(-c2cc(NCCc3c(C)sc4c(C)ccc(F)c34)ncn2)cc(C)c1C(=O)O` [Example 103, 2-Ethoxy-4-{6-[2-(4-fluoro-2,7-dimethyl-benzo[b]thiophen-3-yl)-ethylamino]-pyrimidin-4-yl}-6-methyl-benzoic acid]: the results for the pIC50 on PTGER4 (EP4) and at EP2 receptor were 6.28 and 6.95, respectively.

Take `CCOc1cc(-c2cc(NCCc3c(C#N)sc4c(C)cc(F)cc34)ncn2)ccc1CC(=O)O` [Example 104, (4-{6-[2-(2-Cyano-5-fluoro-7-methyl-benzo[b]thiophen-3-yl)-ethylamino]-pyrimidin-4-yl}-2-ethoxy-phenyl)-acetic acid]: the figures for the pIC50 on PTGER4 (EP4) and on EP2 receptor were 6.79 and 7.32, respectively.

As to `CCOc1cc(-c2cc(NCCc3c(C)sc4c(OC)ccc(F)c34)ncn2)ccc1CC(=O)O` [Example 105, (2-Ethoxy-4-{6-[2-(4-fluoro-7-methoxy-2-methyl-benzo[b]thiophen-3-yl)-ethylamino]-pyrimidin-4-yl}-phenyl)-acetic acid], the pIC50 was 7.24 on PTGER4 (EP4) and 6.80 on EP2 receptor.

As to `CCOc1cc(-c2cc(NCCc3c(C)sc4c(C)ccc(F)c34)ncn2)ccc1CC(=O)O` [Example 107, (2-Ethoxy-4-{6-[2-(4-fluoro-2,7-dimethyl-benzo[b]thiophen-3-yl)-ethylamino]-pyrimidin-4-yl}-phenyl)-acetic acid], the figures for the pIC50 on PTGER4 (EP4) and on EP2 receptor were 6.78 and 6.60, respectively.

Turning to `CCOc1cc(-c2cc(NCCc3c(C)sc4c(C)cccc34)ncn2)ccc1CC(=O)O` [Example 109, (4-{6-[2-(2,7-Dimethyl-benzo[b]thiophen-3-yl)-ethylamino]-pyrimidin-4-yl}-2-ethoxy-phenyl)-acetic acid], the pIC50 at PTGER4 (EP4) is 6.39; against EP2 receptor, 7.02.

For `CCOc1cc(-c2cc(NCCc3c(C)sc4c(C)cc(F)cc34)ncn2)ccc1CC(=O)O` [Example 110, (2-Ethoxy-4-{6-[2-(5-fluoro-2,7-dimethyl-benzo[b]thiophen-3-yl)-ethylamino]-pyrimidin-4-yl}-phenyl)-acetic acid], the pIC50 on PTGER4 (EP4) was 6.39; on EP2 receptor it was 6.80.

In the case of `CCOc1cc(-c2cc(NCCc3c(C)sc4c(C)c(F)ccc34)ncn2)ccc1CC(=O)O` [Example 112, (2-Ethoxy-4-{6-[2-(6-fluoro-2,7-dimethyl-benzo[b]thiophen-3-yl)-ethylamino]-pyrimidin-4-yl}-phenyl)-acetic acid], the pIC50 on PTGER4 (EP4) is 6.18; at EP2 receptor, 6.73.

As to `Cc1sc2c(C)cc(F)cc2c1CCNc1cc(-c2ccc(C(=O)O)c(OC(F)F)c2)ncn1` [Example 115, 2-Difluoromethoxy-4-{6-[2-(5-fluoro-2,7-dimethyl-benzo[b]thiophen-3-yl)-ethylamino]-pyrimidin-4-yl}-benzoic acid], the pIC50 on PTGER4 (EP4) is 6.68; on EP2 receptor it was 8.10.

With `COc1ccc(Cl)c2c(CCNc3cc(-c4ccc(C(=O)O)c(OC(F)F)c4)ncn3)c(C)sc12` [Example 116, 4-{6-[2-(4-Chloro-7-methoxy-2-methyl-benzo[b]thiophen-3-yl)-ethylamino]-pyrimidin-4-yl}-2-difluoromethoxy-benzoic acid], the values for the pIC50 on PTGER4 (EP4) and at EP2 receptor were 6.53 and 7.46, respectively.

Regarding `CCOc1cc(-c2cc(NCCc3c(C)sc4c(OC)ccc(F)c34)ncn2)ccc1OCC(=O)O` [Example 117, (2-Ethoxy-4-{6-[2-(4-fluoro-7-methoxy-2-methyl-benzo[b]thiophen-3-yl)-ethylamino]-pyrimidin-4-yl}-phenoxy)-acetic acid], the figures for the pIC50 on PTGER4 (EP4) and against EP2 receptor were 7.64 and 7.00, respectively.

For the compound `CCOc1cc(-c2cc(NCCc3c(C)sc4c(C)ccc(F)c34)ncn2)ccc1OCC(=O)O` [Example 118, (2-Ethoxy-4-{6-[2-(4-fluoro-2,7-dimethyl-benzo[b]thiophen-3-yl)-ethylamino]-pyrimidin-4-yl}-phenoxy)-acetic acid], the values for the pIC50 at PTGER4 (EP4) and against EP2 receptor were 7.54 and 6.95, respectively.
